# Experimental data published in paper PMC6731595, “The anti-parasitic agent suramin and several of its analogues are inhibitors of the DNA binding protein Mcm10” (Open Biology, 2019).
# Biological target: T1, Xenopus internal domain Mcm10 (xMcm10-ID) (Xenopus laevis, UniProt Q5EAW4)
# T1 construct: xMcm10-ID (amino acid residues 229 to 427); 6xHis (HRV 3C site) (N, cleaved yes); made in house; host or cells: E. coli BL21(DE3)
# T1 sequence (Q5EAW4 229-427): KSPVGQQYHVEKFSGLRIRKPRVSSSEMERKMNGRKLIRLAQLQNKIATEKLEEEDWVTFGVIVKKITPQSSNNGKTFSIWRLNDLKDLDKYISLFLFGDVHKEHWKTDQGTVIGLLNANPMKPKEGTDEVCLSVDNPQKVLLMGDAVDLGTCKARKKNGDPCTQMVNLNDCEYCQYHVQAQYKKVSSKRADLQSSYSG
# Assay: Fluorescence polarization HTS and dose-response assay, 5′-6FAM probe binding to xMcm10-ID
# Conditions: dose-response with repurchased or purchased compound
# Method: A fluorescence polarization (FP) HTS assay was established to detect inhibitors of the binding of the 5′-6FAM 10-mer oligo probe to Mcm10. Test compounds dissolved in DMSO were added to 384-well plates (Corning 4514) using an Echo 550 acoustic dispenser (final DMSO 0.1%) to achieve a final single point screening concentration of 10 µM. Then 10 µl of 2× Xenopus internal domain Mcm10 (xMcm10-ID, final concentration 2 µM) in binding buffer (20 mM Tris HCl, 100 mM NaCl, 5% glycerol, and 0.01% triton, pH 7.5) was added using the Combi nL Multidrop dispenser. Finally, 10 µl of 2× 5′-6FAM DNA (final 12.5 nM) in binding buffer was added using the Multidrop. DMSO (0.1%, high signal) and probe only (low signal) controls were included on every plate. Plates were mixed for 2 min, incubated for 60 min at RT in the dark, and read on a CLARIOstar multimode plate reader (excitation: 482-16, emission: 530-40, dichroic filter: LP504).
# The LOPAC pilot screen identified the sulfhydryl reagent 4-chloromercuribenzoic acid as an inhibitor in the fluorescence polarization (FP) assay. As there was no known Mcm10 inhibitor, 4-chloromercuribenzoic acid (30 μM) was used as a positive control on initial screening plates. Following the discovery of suramin as a Mcm10 inhibitor, suramin (7 μM) was used as a positive control on subsequent screening plates. To confirm activity, screening hits were tested in dose response experiments (8 concentrations in duplicate) using xMcm10-ID. Similar dose response experiments were conducted with suramin and its analogs to confirm activity for hMcm10-ID (1 μM) and xMcm10-FL (2 μM) and to determine selectivity relative to RPA70AB (0.4 μM). Saturation experiments for each protein were conducted using increasing concentrations of protein with a fixed probe concentration (12.5 nM). FP was measured in mP units, and ∆mP values for each well were calculated as the difference between the measured mP and the average of the “probe only” controls. […] The parallel and perpendicular mP values were also used to calculate total fluorescence intensity (TFI) determined by the sum of parallel mP + (2 x perpendicular mP). TFI was used to detect fluorescence interference by compounds [1]. […] IC50 values were calculated using the four parameter logistic equation in Prism 6.0 (GraphPad). Ki values were obtained using an online Ki calculator according to the equations of Nikolovska-Coleska (http://sw16.im.med.umich.edu/soft-ware/calc_ki/). KD values were calculated using the one site or two site binding equations in Prism 6.0 (GraphPad).
compound,measurement,value
O=C(O)c1cc[c]([Hg][Cl])cc1 [4-chloromercuribenzoic acid],inhibition of 5′-6FAM probe binding to xMcm10-ID (result in words),active
